Like-named read-outs stand apart in the source and are kept apart here.
Test: Pharmacokinetics of ZA in pig serum after IV or SC infusion with or without rHuPH20 (LC-MS-MS, non-compartmental analysis)
Format: in vivo
Conditions: ZA […], rHuPH20 0 U/mL
Description: A pharmacokinetic study of zoledronic acid (ZA) co-administered with rHuPH20 in female Yorkshire swines was conducted. The primary objective of the study was to determine the bioavailability of zoledronic acid dosed via subcutaneous (SC) co-administration with human recombinant hyaluronidase PH20 (rHuPH20) and to compare the overall exposure to an equivalent IV dose.
Animals in Study Group 1 were dosed with 0.15 mg/kg ZA given via a 20-minute IV infusion. Animals in Study Groups 2 and 3 were dosed subcutaneously (SC) with 0.15 mg/kg ZA without and with rHuPH20, respectively, in different SC delivery volumes.
Following ZA dose administration, serial blood samples were collected via vascular access ports (VAPs) for serum preparation and determination of ZA concentrations. Blood collection times were at 1, 3, 5, 10, 15, 20, 30, 45, and 60 minutes, and at 1.5, 2, 3, 4, 6, 8, 10, 24, 48, and 72 hours post dose. Urine samples were also collected to compare excretion characteristics between IV and SC routes of administration. Collection times for urine were at 15 minutes before dosing (−15 min.), continuously from dose initiation to 2 hours post dose, and at 4, 6, 8, and 24 hours post dose thereafter.
Serum concentration of ZA was determined using a qualified LC-MS-MS assay after derivatization with diazomethane (Zhu, L S et al. (2006) Rapid Commun. Mass Spectrom. 20: 3421-3426; “Qualification Data of An LC-MS/MS Method for the Determination of Zoledronate in Porcine Serum”, MDS Pharma Services Study No. AA43671-01, Report Date 14 Sep. 2007). The assay range was from 2.0 to 400 ng/mL with a lower limit of quantitation (LLOQ) at 2.0 ng/mL. Urine concentration of ZA was determined by a similar well qualified LC-MS-MS method (“Qualification Data of An LC-MS/MS Method for the Determination of Zoledronate in Porcine Urine”, MDS Pharma Services Study No. AA43671-02, Report Date 14 Sep. 2007) with an assay LLOQ at 10 ng/mL.
Pharmacokinetic (PK) analyses of ZA serum concentration versus time data were conducted using WinNonlin v5.1 (Pharsight, Mountain View, Calif.). Non-compartmental analysis was used for derivation of primary and secondary pharmacokinetic (PK) parameters. AUC, Cmax, and Tmax were compared between dose routes, between co-administration with rHuPH20, and with dose of rHuPH20.

[1] = female, Yorkshire, pig, serum, intravenous, […], animal ID 57, Study Group 1, IV 20 min infusion, read-out: Zoledronic Acid Serum Concentration
[2] = female, Yorkshire, pig, serum, intravenous, […], animal ID 61, Study Group 1, IV 20 min infusion, read-out: Zoledronic Acid Serum Concentration

## O=P(O)(O)C(O)(Cn1ccnc1)P(=O)(O)O [ZA, 1-hydroxy-2-(1H-imidazol-1-yl)ethylidene-1,1-bisphosphonic acid]
Time 6 h, pig ID 59, Study Group 2, SC, 100 mL, 16 min
  Zoledronic Acid Serum Concentration: BLQ (BLQ = below assay limit of quantification (2.0 ng/mL))
Time 8 h, pig ID 59, Study Group 2, SC, 100 mL, 16 min
  Zoledronic Acid Serum Concentration: BLQ (BLQ = below assay limit of quantification (2.0 ng/mL))
Time 8 h, pig ID 60, Study Group 2, SC, 100 mL, 16 min
  Zoledronic Acid Serum Concentration: BLQ (BLQ = below assay limit of quantification (2.0 ng/mL))
Time 8 h, pig ID 62, Study Group 2, SC, 50 mL, 8 min
  Zoledronic Acid Serum Concentration: BLQ (BLQ = below assay limit of quantification (2.0 ng/mL))
Time 8 h, pig ID 69, Study Group 2, SC, 25 mL, 4 min
  Zoledronic Acid Serum Concentration: BLQ (BLQ = below assay limit of quantification (2.0 ng/mL))
Time 10 h, pig ID 59, Study Group 2, SC, 100 mL, 16 min
  Zoledronic Acid Serum Concentration: BLQ (BLQ = below assay limit of quantification (2.0 ng/mL))
Time 10 h, pig ID 60, Study Group 2, SC, 100 mL, 16 min
  Zoledronic Acid Serum Concentration: BLQ (BLQ = below assay limit of quantification (2.0 ng/mL))
Time 10 h, pig ID 62, Study Group 2, SC, 50 mL, 8 min
  Zoledronic Acid Serum Concentration: BLQ (BLQ = below assay limit of quantification (2.0 ng/mL))
Time 10 h, pig ID 69, Study Group 2, SC, 25 mL, 4 min
  Zoledronic Acid Serum Concentration: BLQ (BLQ = below assay limit of quantification (2.0 ng/mL))
Time 10 h, pig ID 70, Study Group 2, SC, 10 mL, 1.6 min
  Zoledronic Acid Serum Concentration: BLQ (BLQ = below assay limit of quantification (2.0 ng/mL))
Time 24 h, pig ID 59, Study Group 2, SC, 100 mL, 16 min
  Zoledronic Acid Serum Concentration: BLQ (BLQ = below assay limit of quantification (2.0 ng/mL))
Time 24 h, pig ID 60, Study Group 2, SC, 100 mL, 16 min
  Zoledronic Acid Serum Concentration: BLQ (BLQ = below assay limit of quantification (2.0 ng/mL))
Time 24 h, pig ID 62, Study Group 2, SC, 50 mL, 8 min
  Zoledronic Acid Serum Concentration: BLQ (BLQ = below assay limit of quantification (2.0 ng/mL))
Time 24 h, pig ID 69, Study Group 2, SC, 25 mL, 4 min
  Zoledronic Acid Serum Concentration: BLQ (BLQ = below assay limit of quantification (2.0 ng/mL))
Time 24 h, pig ID 70, Study Group 2, SC, 10 mL, 1.6 min
  Zoledronic Acid Serum Concentration: BLQ (BLQ = below assay limit of quantification (2.0 ng/mL))
Time 48 h, pig ID 59, Study Group 2, SC, 100 mL, 16 min
  Zoledronic Acid Serum Concentration: BLQ (BLQ = below assay limit of quantification (2.0 ng/mL))
Time 48 h, pig ID 60, Study Group 2, SC, 100 mL, 16 min
  Zoledronic Acid Serum Concentration: BLQ (BLQ = below assay limit of quantification (2.0 ng/mL))
Time 48 h, pig ID 62, Study Group 2, SC, 50 mL, 8 min
  Zoledronic Acid Serum Concentration: BLQ (BLQ = below assay limit of quantification (2.0 ng/mL))
Time 48 h, pig ID 69, Study Group 2, SC, 25 mL, 4 min
  Zoledronic Acid Serum Concentration: BLQ (BLQ = below assay limit of quantification (2.0 ng/mL))
Time 48 h, pig ID 70, Study Group 2, SC, 10 mL, 1.6 min
  Zoledronic Acid Serum Concentration: BLQ (BLQ = below assay limit of quantification (2.0 ng/mL))
Time 72 h, pig ID 59, Study Group 2, SC, 100 mL, 16 min
  Zoledronic Acid Serum Concentration: BLQ (BLQ = below assay limit of quantification (2.0 ng/mL))
Time 72 h, pig ID 60, Study Group 2, SC, 100 mL, 16 min
  Zoledronic Acid Serum Concentration: BLQ (BLQ = below assay limit of quantification (2.0 ng/mL))
Time 72 h, pig ID 62, Study Group 2, SC, 50 mL, 8 min
  Zoledronic Acid Serum Concentration: BLQ (BLQ = below assay limit of quantification (2.0 ng/mL))
Time 72 h, pig ID 69, Study Group 2, SC, 25 mL, 4 min
  Zoledronic Acid Serum Concentration: BLQ (BLQ = below assay limit of quantification (2.0 ng/mL))
Time 72 h, pig ID 70, Study Group 2, SC, 10 mL, 1.6 min
  Zoledronic Acid Serum Concentration: BLQ (BLQ = below assay limit of quantification (2.0 ng/mL))
Time […], pig ID 60, Study Group 2, SC, 100 mL, 16 min
  Zoledronic Acid Serum Concentration: BLQ (BLQ = below assay limit of quantification (2.0 ng/mL))
Time […], pig ID 62, Study Group 2, SC, 50 mL, 8 min
  Zoledronic Acid Serum Concentration: BLQ (BLQ = below assay limit of quantification (2.0 ng/mL))
Time […], pig ID 69, Study Group 2, SC, 25 mL, 4 min
  Zoledronic Acid Serum Concentration: BLQ (BLQ = below assay limit of quantification (2.0 ng/mL))
Time […], pig ID 70, Study Group 2, SC, 10 mL, 1.6 min
  Zoledronic Acid Serum Concentration: BLQ (BLQ = below assay limit of quantification (2.0 ng/mL))
Animal ID 57, Study Group 1, IV 20 min infusion, time 6 h
  Zoledronic Acid Serum Concentration: BLQ^a (BLQ = below assay limit of quantification (2.0 ng/mL))
Animal ID 57, Study Group 1, IV 20 min infusion, time 8 h
  Zoledronic Acid Serum Concentration: BLQ (BLQ = below assay limit of quantification (2.0 ng/mL))
Animal ID 57, Study Group 1, IV 20 min infusion, time 10 h
  Zoledronic Acid Serum Concentration: BLQ (BLQ = below assay limit of quantification (2.0 ng/mL))
Animal ID 57, Study Group 1, IV 20 min infusion, time 24 h
  Zoledronic Acid Serum Concentration: BLQ (BLQ = below assay limit of quantification (2.0 ng/mL))
Animal ID 57, Study Group 1, IV 20 min infusion, time 48 h
  Zoledronic Acid Serum Concentration: BLQ (BLQ = below assay limit of quantification (2.0 ng/mL))
Animal ID 57, Study Group 1, IV 20 min infusion, time 72 h
  Zoledronic Acid Serum Concentration: BLQ (BLQ = below assay limit of quantification (2.0 ng/mL))
Animal ID 57, Study Group 1, IV 20 min infusion, time […]
  Zoledronic Acid Serum Concentration: BLQ (BLQ = below assay limit of quantification (2.0 ng/mL))
Animal ID 61, Study Group 1, IV 20 min infusion, time 6 h
  Zoledronic Acid Serum Concentration: BLQ (BLQ = below assay limit of quantification (2.0 ng/mL))
Animal ID 61, Study Group 1, IV 20 min infusion, time 8 h
  Zoledronic Acid Serum Concentration: BLQ (BLQ = below assay limit of quantification (2.0 ng/mL))
Animal ID 61, Study Group 1, IV 20 min infusion, time 10 h
  Zoledronic Acid Serum Concentration: BLQ (BLQ = below assay limit of quantification (2.0 ng/mL))
Animal ID 61, Study Group 1, IV 20 min infusion, time 24 h
  Zoledronic Acid Serum Concentration: BLQ (BLQ = below assay limit of quantification (2.0 ng/mL))
Animal ID 61, Study Group 1, IV 20 min infusion, time 48 h
  Zoledronic Acid Serum Concentration: BLQ (BLQ = below assay limit of quantification (2.0 ng/mL))
Animal ID 61, Study Group 1, IV 20 min infusion, time 72 h
  Zoledronic Acid Serum Concentration: BLQ (BLQ = below assay limit of quantification (2.0 ng/mL))
Animal ID 61, Study Group 1, IV 20 min infusion, time […]
  Zoledronic Acid Serum Concentration: BLQ (BLQ = below assay limit of quantification (2.0 ng/mL))
Animal ID 67, Study Group 1, IV 20 min infusion, time 6 h
  Zoledronic Acid Serum Concentration: BLQ (BLQ = below assay limit of quantification (2.0 ng/mL))
Animal ID 67, Study Group 1, IV 20 min infusion, time 8 h
  Zoledronic Acid Serum Concentration: BLQ (BLQ = below assay limit of quantification (2.0 ng/mL))
Animal ID 67, Study Group 1, IV 20 min infusion, time 10 h
  Zoledronic Acid Serum Concentration: BLQ (BLQ = below assay limit of quantification (2.0 ng/mL))
Animal ID 67, Study Group 1, IV 20 min infusion, time 24 h
  Zoledronic Acid Serum Concentration: BLQ (BLQ = below assay limit of quantification (2.0 ng/mL))
Animal ID 67, Study Group 1, IV 20 min infusion, time 48 h
  Zoledronic Acid Serum Concentration: BLQ (BLQ = below assay limit of quantification (2.0 ng/mL))
Animal ID 67, Study Group 1, IV 20 min infusion, time 72 h
  Zoledronic Acid Serum Concentration: BLQ (BLQ = below assay limit of quantification (2.0 ng/mL))
Animal ID 67, Study Group 1, IV 20 min infusion, time […]
  Zoledronic Acid Serum Concentration: BLQ (BLQ = below assay limit of quantification (2.0 ng/mL))
[1]
  concentration at 0.016 h: 255 ng/mL
  concentration at 0.05 h: 446 ng/mL
  concentration at 0.333 h: 388 ng/mL
female, Yorkshire, pig, serum, intravenous, […], animal ID 57, Study Group 1, IV 20 min infusion, time 0.50 h, read-out: Zoledronic Acid Serum Concentration
  concentration at 0.5 h: 244 ng/mL
female, Yorkshire, pig, serum, intravenous, […], animal ID 57, Study Group 1, IV 20 min infusion, time 1.00 h, read-out: Zoledronic Acid Serum Concentration
  concentration at 1 h: 71.4 ng/mL
female, Yorkshire, pig, serum, intravenous, […], animal ID 57, Study Group 1, IV 20 min infusion, time 2 h, read-out: Zoledronic Acid Serum Concentration
  concentration at 2 h: 15.4 ng/mL
female, Yorkshire, pig, serum, intravenous, […], animal ID 57, Study Group 1, IV 20 min infusion, time 3 h, read-out: Zoledronic Acid Serum Concentration
  concentration at 3 h: 5.8 ng/mL
female, Yorkshire, pig, serum, intravenous, […], animal ID 57, Study Group 1, IV 20 min infusion, time 4 h, read-out: Zoledronic Acid Serum Concentration
  concentration at 4 h: 2.8 ng/mL
[2]
  concentration at 0.016 h: 254 ng/mL
  concentration at 0.05 h: 196 ng/mL
  concentration at 0.333 h: 596 ng/mL
female, Yorkshire, pig, serum, intravenous, […], animal ID 61, Study Group 1, IV 20 min infusion, time 0.5 h, read-out: Zoledronic Acid Serum Concentration
  concentration at 0.5 h: 299 ng/mL
female, Yorkshire, pig, serum, intravenous, […], animal ID 61, Study Group 1, IV 20 min infusion, time 1 h, read-out: Zoledronic Acid Serum Concentration
  concentration at 1 h: 85.5 ng/mL

Source: patent publication US20090311237A1, “Combination therapy using a soluble hyaluronidase and a bisphosphonate” (priority 2008, published 2009)
